This is an account of results in patent US20230158016A1, “DELTA OPIOID RECEPTOR ANTAGONISTS REPROGRAM IMMUNOSUPPRESSIVE MICROENVIRONMENT TO BOOST IMMUNOTHERAPY” (H LEE MOFFITT CANCER CENTER AND RESEARCH INSTITUTE, INC., priority 2020, published 2023).

The experiment deals with Bone marrow precursors. Put plainly: Development of MDSC from bone marrow precursors cultured in GM-CSF and G-CSF with DOR antagonists. Type of experiment: cell-based, mice. The note with it: bone marrow precursors cultured 96 hours in GM-CSF and G-CSF (20 ng/ml each), increasing concentrations of antagonist. As to the method:
Next the effect of DOR antagonist on M-MDSC was investigated. Bone marrow precursors were isolated and cultured for 96 hours in GM-CSF and G-CSF (20 ng/ml each) in the presence of increasing concentrations of the DOR antagonists Naltriben mesylate (NTB) or Naltrindole hydrochloride (NTD). Then, we evaluated cell viability by flow cytometry (using DAPI). […] Additionally, the number of M-MDSC (CD11b^+Ly6G^negLy6C^high) and PMN-MDSC (CD11b^+Ly6G^+Ly6C^low) was calculated.
The conjugated antibodies and probes used for flow cytometry are listed in the Key Resources Table. For surface staining, cells were labelled with the appropriate antibodies in the presence of Fc blocker. For intracellular staining, surface-labeled cells were fixed with Cytofix/Cytoperm™ Solution (BD Biosciences), washed in Perm/Wash™ 1×solution, and labelled with intracellular antibodies. Cells were then washed in Perm/Wash™ 1×and PBS. Live vs. dead cell discrimination was performed prior to antibody labeling by Zombie Fixable Viability dye (Biolegend). Ex vivo intracellular staining for IL-12 and TNFα was performed on isolated cells after stimulation for 6 hours with LPS (1 μg/ml, Sigma Aldrich) in the presence of Golgi stop (0.8 μl/ml, BD Biosciences). For IFNγ staining, cells were incubated for 5 hours with phorbol myristate acetate (PMA, 750 ng/mL, Sigma Aldrich) and ionomycin (50 μg/mL, Sigma-Aldrich) in the presence and Golgi stop (0.8 μl/ml). For ER-tracker and Mitotracker staining, cells were probed with 100 nM of ER tracker green or 200 nM of Mitotracker green (Invitrogen) and then stained for surface markers. For Mitochondrial membrane potential, cells were stained with JC-1 flow cytometry assay kit (Cayman chemicals) followed by surface markers staining. ROS were detected by DCFDA (10 μM) or Dihydroethidium (DHE, 10 μM). Data acquisition was performed in a CytoFLEX II (Beckman Coulter) or LSRII (BD Biosciences). All analysis was performed using FlowJo version 11 software.

Structures can show the parent of a compound that is named as a salt.

Regarding Naltriben mesylate [NTB], the “absolute number of generated MDSC (CD11b+Gr1+)” value is recorded as “steady decline of MDSC as concentrations increased”; the “cell viability by flow cytometry (using DAPI)” value is “strong correlation increasing concentration of either NTD or NTB and cell death”; the “number of M-MDSC (CD11b+Ly6GnegLy6Chigh)” value was “the more significant losses were observed in the M-MDSC subset”; the “number of PMN-MDSC (CD11b+Ly6G+Ly6Clow)” value was “declined in number as the concentration of NTD or NTB increased”.
As for `Oc1ccc2c3c1O[C@H]1c4[nH]c5ccccc5c4C[C@@]4(O)[C@@H](C2)N(CC2CC2)CC[C@]314` [NTD, Naltrindole hydrochloride], the “absolute number of generated MDSC (CD11b+Gr1+)” value was “steady decline of MDSC as concentrations increased”; the “cell viability by flow cytometry (using DAPI)” value is “strong correlation increasing concentration of either NTD or NTB and cell death”; the “number of M-MDSC (CD11b+Ly6GnegLy6Chigh)” value is recorded as “the more significant losses were observed in the M-MDSC subset”; the “number of PMN-MDSC (CD11b+Ly6G+Ly6Clow)” value is listed as “declined in number as the concentration of NTD or NTB increased”.
